Assay results taken from PubChem BioAssay AID330 (DTP/NCI, 2004).
Several values for one entry are separate records, joined by “and”; a condition that tells them apart may be missing. Equal values may be shown once. Toxic doses and inconclusive results are not listed. Rule for the calls: active = survival T/C of 150% or more; inactive = T/C below 125% in these data.

Test system: P388 leukemia ip, CD2F1 mice, survival T/C
Assay: NCI In Vivo Anticancer Drug Screen. Data for tumor model P388 Leukemia (intraperitoneal) in CD2F1 (CDF1) mice
Details: endpoint: median survival time, higher = longer survival
Summary of the method: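 Mice carrying the transplanted tumor received test compound or vehicle. Survival was recorded in each group, and the value is the treated-group measurement divided by that of the vehicle-treated control group.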

[1] = dose: 100.0 mg/kg/injection, schedule: Q01DX001 (ip), vehicle: saline
[2] = dose: 200.0 mg/kg/injection, schedule: Q01DX001 (ip), vehicle: saline
[3] = dose: 400.0 mg/kg/injection, schedule: Q01DX001 (ip), vehicle: saline
[4] = dose: 50.0 mg/kg/injection, schedule: Q01DX005 (ip), vehicle: Klucel (hydroxypropylcellulose) (HPC)
[5] = dose: 100.0 mg/kg/injection, schedule: Q01DX005 (ip), vehicle: Klucel (hydroxypropylcellulose) (HPC)
[6] = dose: 25.0 mg/kg/injection, schedule: Q01DX009 (ip), vehicle: saline with Tween-80
[7] = dose: 50.0 mg/kg/injection, schedule: Q01DX009 (ip), vehicle: saline with Tween-80
[8] = dose: 50.0 mg/kg/injection, schedule: Q01DX005 (ip), vehicle: saline with Tween-80
[9] = dose: 100.0 mg/kg/injection, schedule: Q01DX009 (ip), vehicle: saline with Tween-80
[10] = dose: 200.0 mg/kg/injection, schedule: Q01DX009 (ip), vehicle: saline with Tween-80
[11] = dose: 50.0 mg/kg/injection, schedule: Q01DX009 (ip), vehicle: saline
[12] = dose: 100.0 mg/kg/injection, schedule: Q01DX009 (ip), vehicle: saline
[13] = dose: 200.0 mg/kg/injection, schedule: Q01DX009 (ip), vehicle: saline
[14] = dose: 50.0 mg/kg/injection, schedule: Q01DX009 (ip), vehicle: Klucel (hydroxypropylcellulose) (HPC)
[15] = dose: 100.0 mg/kg/injection, schedule: Q01DX009 (ip), vehicle: Klucel (hydroxypropylcellulose) (HPC)
[16] = dose: 200.0 mg/kg/injection, schedule: Q01DX009 (ip), vehicle: Klucel (hydroxypropylcellulose) (HPC)

Measured: T/C

COC(=O)n1c(=O)ccc(=O)n1C(=O)OC
inactive: dose: 50.0 mg/kg/injection, schedule: Q01DX001 (ip), vehicle: saline 100 % of control and 103 % of control | [1] 98 % of control and 100 % of control and 106 % of control | [2] 100 % of control and 106 % of control and 115 % of control | [3] 100 % of control and 112 % of control and 122 % of control

O=C1C=CC(=O)C2=C1C1c3ccccc3C2c2ccccc21
inactive: [4] 101 % of control | [5] 110 % of control

COc1ccc(/C=C2/N=C(c3ccccc3)OC2=O)cc1
inactive: dose: 60.0 mg/kg/injection, schedule: Q01DX005 (ip), vehicle: saline with Tween-80 93 % of control | dose: 120.0 mg/kg/injection, schedule: Q01DX005 (ip), vehicle: saline with Tween-80 93 % of control | dose: 240.0 mg/kg/injection, schedule: Q01DX005 (ip), vehicle: saline with Tween-80 87 % of control

OCC(O)Cn1cnc2c(NO)ncnc21 (configuration not stated)
inactive: dose: 60.0 mg/kg/injection, schedule: Q01DX005 (ip), vehicle: Klucel (hydroxypropylcellulose) (HPC) 101 % of control | dose: 120.0 mg/kg/injection, schedule: Q01DX005 (ip), vehicle: Klucel (hydroxypropylcellulose) (HPC) 95 % of control | dose: 240.0 mg/kg/injection, schedule: Q01DX005 (ip), vehicle: Klucel (hydroxypropylcellulose) (HPC) 100 % of control

OCC1CCCCC1(O)c1ccccc1 (configuration not stated)
inactive: dose: 50.0 mg/kg/injection, schedule: Q01DX001 (ip), vehicle: Klucel (hydroxypropylcellulose) (HPC) 90 % of control | dose: 100.0 mg/kg/injection, schedule: Q01DX001 (ip), vehicle: Klucel (hydroxypropylcellulose) (HPC) 90 % of control | dose: 200.0 mg/kg/injection, schedule: Q01DX001 (ip), vehicle: Klucel (hydroxypropylcellulose) (HPC) 90 % of control

CC(=O)OC1CC2CC1C1C3C=CC(C3)C21 (configuration not stated)
inactive: [6] 100 % of control | [7] 104 % of control | [1] 100 % of control | [2] 91 % of control | [3] 95 % of control

CC(=O)C[n+]1ccccc1C
inactive: [8] 93 % of control | dose: 100.0 mg/kg/injection, schedule: Q01DX005 (ip), vehicle: saline with Tween-80 107 % of control

CN(NC(=O)CC(=O)NN(C)C(=S)c1ccccc1)C(=S)c1ccccc1
inactive: dose: 12.5 mg/kg/injection, schedule: Q01DX009 (ip), vehicle: gum acacia 97 % of control | dose: 25.0 mg/kg/injection, schedule: Q01DX009 (ip), vehicle: gum acacia 115 % of control | dose: 50.0 mg/kg/injection, schedule: Q01DX009 (ip), vehicle: gum acacia 104 % of control

CCOC(=N)Cc1ccccc1
inactive: [6] 103 % of control | [7] 94 % of control | [9] 101 % of control | [10] 100 % of control

[CH3][Sn]([CH3])([Cl])[O][Sn]([CH3])([CH3])[Cl]
inactive: dose: 1.56 mg/kg/injection, schedule: Q01DX009 (ip), vehicle: saline 115 % of control | dose: 3.12 mg/kg/injection, schedule: Q01DX009 (ip), vehicle: saline 109 % of control and 118 % of control | dose: 6.25 mg/kg/injection, schedule: Q01DX009 (ip), vehicle: saline 118 % of control and 123 % of control | dose: 12.5 mg/kg/injection, schedule: Q04DX003 (ip), vehicle: saline 116 % of control | dose: 25.0 mg/kg/injection, schedule: Q04DX003 (ip), vehicle: saline 124 % of control | dose: 50.0 mg/kg/injection, schedule: Q04DX003 (ip), vehicle: saline 109 % of control

O=CC(=O)c1ccc(O)cc1
inactive: dose: 18.8 mg/kg/injection, schedule: Q04DX003 (ip), vehicle: saline 101 % of control | dose: 37.5 mg/kg/injection, schedule: Q04DX003 (ip), vehicle: saline 100 % of control | dose: 75.0 mg/kg/injection, schedule: Q04DX003 (ip), vehicle: saline 103 % of control | dose: 150.0 mg/kg/injection, schedule: Q04DX003 (ip), vehicle: saline 109 % of control

CC(C)(C)c1ccc(N)c(N)c1
inactive: dose: 50.0 mg/kg/injection, schedule: Q01DX009 (ip), vehicle: DMSO 98 % of control | dose: 100.0 mg/kg/injection, schedule: Q01DX009 (ip), vehicle: DMSO 99 % of control

CCOC(=O)C(C)c1ccccc1 (configuration not stated)
inactive: [11] 96 % of control | [12] 105 % of control | [13] 99 % of control

N#CCCOCC(COCCC#N)OCCC#N
inactive: [11] 105 % of control | [12] 92 % of control | [13] 102 % of control

O=C1OCC2=C1CN1CCc3cc4c(cc3C1C2)OCO4 (configuration not stated)
inactive: dose: 0.63 mg/kg/injection, schedule: Q01DX009 (ip), vehicle: distilled water + Tween-80 94 % of control | dose: 1.25 mg/kg/injection, schedule: Q01DX009 (ip), vehicle: distilled water + Tween-80 103 % of control | dose: 2.5 mg/kg/injection, schedule: Q01DX009 (ip), vehicle: distilled water + Tween-80 112 % of control | dose: 5.0 mg/kg/injection, schedule: Q01DX009 (ip), vehicle: distilled water + Tween-80 103 % of control | dose: 10.0 mg/kg/injection, schedule: Q01DX009 (ip), vehicle: distilled water + Tween-80 103 % of control | dose: 20.0 mg/kg/injection, schedule: Q01DX009 (ip), vehicle: distilled water + Tween-80 94 % of control

CC/C=c1/[nH]c(=O)/c(=C\c2ccc([N+](=O)[O-])cc2)[nH]c1=O
inactive: dose: 25.0 mg/kg/injection, schedule: Q01DX009 (ip), vehicle: Klucel (hydroxypropylcellulose) (HPC) 90 % of control | [14] 87 % of control and 91 % of control | [15] 86 % of control | [16] 94 % of control

CC1OC(OC2CCCc3c(O)c4c(c(O)c32)C(=O)c2ccccc2C4=O)CC(N)C1O (configuration not stated)
inactive: dose: 1.25 mg/kg/injection, schedule: Q04DX002 (ip), vehicle: water 104 % of control and 106 % of control | dose: 2.5 mg/kg/injection, schedule: Q04DX002 (ip), vehicle: water 98 % of control and 111 % of control | dose: 5.0 mg/kg/injection, schedule: Q04DX002 (ip), vehicle: water 98 % of control and 106 % of control | dose: 10.0 mg/kg/injection, schedule: Q04DX002 (ip), vehicle: water 98 % of control and 106 % of control

CCOC(=O)NN(C(=O)OCC)C(C(C)=O)C(C)=NCCN=C(C)C(C(C)=O)N(NC(=O)OCC)C(=O)OCC.[Cu] (configuration not stated)
inactive: dose: 12.5 mg/kg/injection, schedule: Q01DX005 (ip), vehicle: Klucel (hydroxypropylcellulose) (HPC) 100 % of control | dose: 25.0 mg/kg/injection, schedule: Q01DX005 (ip), vehicle: Klucel (hydroxypropylcellulose) (HPC) 105 % of control | [4] 100 % of control and 107 % of control

CNc1nc2c(N)ncnc2n1C1CC(O)C(CO)O1 (configuration not stated)
inactive: [4] 101 % of control | [5] 96 % of control | dose: 200.0 mg/kg/injection, schedule: Q01DX005 (ip), vehicle: Klucel (hydroxypropylcellulose) (HPC) 104 % of control

CC(C)CCCC(C)C1CCC2C3CCC4CC(OP(=O)(O)O)CCC4(C)C3CCC12C (configuration not stated)
inactive: [7] 99 % of control | [9] 96 % of control | [10] 93 % of control

CCOC(=O)N1CCN(CC(O)Cn2c(=O)c3c(nc(N4CCN(C(=O)OCC)CC4)n3C)n(C)c2=O)CC1 (configuration not stated)
inactive: [14] 100 % of control | [15] 101 % of control | [16] 99 % of control

Cc1cc(-c2cc(C)on2)no1
inactive: dose: 60.0 mg/kg/injection, schedule: Q01DX005 (ip), vehicle: saline 103 % of control | dose: 120.0 mg/kg/injection, schedule: Q01DX005 (ip), vehicle: saline 103 % of control | dose: 240.0 mg/kg/injection, schedule: Q01DX005 (ip), vehicle: saline 103 % of control

CN(N=O)C(=O)NCCSSCCNC(=O)N(C)N=O
active: dose: 40.0 mg/kg/injection, schedule: Q01DX009 (ip), vehicle: saline with Tween-80 177 % of control | dose: 80.0 mg/kg/injection, schedule: Q04DX003 (ip), vehicle: saline with Tween-80 155 % of control
inactive: dose: 20.0 mg/kg/injection, schedule: Q04DX003 (ip), vehicle: saline with Tween-80 115 % of control

O=C1CN(c2ccccc2)CC(=O)N2CCCN12
inactive: dose: 12.5 mg/kg/injection, schedule: Q01DX005 (ip), vehicle: saline with Tween-80 100 % of control | dose: 25.0 mg/kg/injection, schedule: Q01DX005 (ip), vehicle: saline with Tween-80 96 % of control | [8] 100 % of control
